Test results reported in publication PMC12064818, “A general assay platform to study protein pharmacology using ligand-dependent structural dynamics” (Nature Communications, 2025).
Where two headings read alike, the source gives them in different places. One block for each compound: values may come before it.

How the values were obtained:
[1] = target: T1, FLuc-C-HiBiT (firefly luciferase) (Photinus pyralis, UniProt P08659, form not given/L550V); test: Firefly luciferase (FLuc) enzymatic luminescence assay, FLuc-C-HiBiT; type: biochemical; conditions: FLuc-C-HiBiT qHTS, FLuc enzymatic assay; for IC50: read-out: IC50, FLuc E
Description: (§1) The enzyme activity of FLuc-N-HiBiT, FLuc-C-HiBiT, and FLuc-C-NLuc was measured similar to P. pyralis firefly luciferase (FLuc) as previously described. […] Compounds and controls were added to each plate as described in Supplementary Data 8 with a Hornet pintool system (Wako Automation). Compounds were incubated with respective enzymes for 30–60 min at room temperature protected from light and covered by solid metal lid to prevent evaporation. […] Luciferin was incubated with FLuc enzyme for 5 min before FLuc activity was then measured on a ViewLux CCD imager (PerkinElmer), with exposure times up to ten seconds with medium to high gain settings. Data were normalized to average no enzyme control as 100% enzyme inhibition and average DMSO neutral control. See Supplementary Table 4 for additional details.
(§2) Supplementary Table 4. Protocol for Firefly luciferase (FLuc) and NanoLuc (NLuc) enzymatic
(§3) Supplementary Table 4: Protocol for Firefly luciferase (FLuc) and NanoLuc (NLuc) enzym atic lum inescence assay
(§4) Firefly luciferase (FLuc) enzym atic lum inescence assay
(§5) Sequence Param eter Value Description
(§6) No enzym e control (colum n 1) and enzym e solution (1- 10 nM FLuc enzym e) in FLuc assay
(§7) 1 Reagent 4 µLbuffer; white/solid bottom , m edium bind, high base plates (Greiner), dispensed with BioRaptr
(§8) com pounds transferred to respective colum ns with Pintool
(§9) 2b Test Com pounds 23 nLconcentration range) in colum ns 5- 48; com pounds transferred to respective wells with
(§10) 3 Incubation 30 m in Incubate enzym e + com pounds at am bient tem p for 30 m in, protected from light
(§11) 4 Reagent 3 µLAdd 3 µL of D-luciferin substrate solution to each well (final concentration 10 µM); dispensed
(§12) 5 Detector ViewLux Read plate lum inescence (Exposure = 1- 10 sec; Gain = Medium -high; Speed = Slow;
(§13) Dispensing solution was diluted in 1X PBS, pH 7.4. […]

[2] = target: T1, FLuc-C-HiBiT (firefly luciferase); test: SDR assay, FLuc-C-HiBiT; conditions: for pSDR50, SDR (+ ATP) / pSDR50, SDR (-ATP) / EC50: FLuc-C-HiBiT qHTS; for Pearson r (SDR+ATP vs. E): correlation of SDR (+ATP) with the FLuc enzymatic assay (E); for Pearson r (SDR-ATP vs. E): correlation of SDR (-ATP) with the FLuc enzymatic assay (E); for % Activity (max response, + ATP) / % Activity (max response, - ATP): SDR max. response, clade S
P. pyralis FLuc = P. pyralis FLuc (Photinus pyralis, UniProt P08659); test: FLuc enzymatic luminescence assay, P. pyralis FLuc; type: biochemical; set-up: CC-v2: scale not given here; conditions: for Efficacy (%) FLuc E / IC50: FLuc enzymatic assay; for Efficacy (%) FLuc E: Clade S follow-up; for IC50: read-out: IC50 or SDR50 (mM) FLuc E; for AC50 / CC-v2 / Efficacy / Hill Coef / Inf Activity / Max Resp / Zero Activity: Sample Data Type FLuc-Km
Description: as §1
Assays were run in the presence (solid symbols) or absence
(open symbols) of 10 µM ATP. Corresponding SMIL E S for NC GC IDs and source data are provided in
Supplementary Data 3 and as a Source Data file. 10
as §2, §3, §4, §5, §6, §7, §8, §9, §10, §11, §12, §13

[3] = target: FLuc-C-NLuc (firefly luciferase) (Photinus pyralis, UniProt P08659, form not given/L550V); test: SDR assay, FLuc-C-NLuc; conditions: - ATP
FLuc-C-HiBiT = target: T2, FLuc-C-HiBiT (Photinus pyralis, UniProt P08659); test: biochemical; conditions: enzyme activity, 10 uM ATP; read-out: IC50 or SDR50 (mM) / FLuc E
T2 construct: firefly luciferase with C-terminal HiBiT tag, E. coli expressed

[4] = read-out: SDR50, SDR (+ ATP), SDR assay with ATP
[5] = read-out: SDR50, SDR (-ATP), SDR assay without ATP

Sequence of FLuc-C-NLuc (firefly luciferase) (P08659 2-550 L550V, form open): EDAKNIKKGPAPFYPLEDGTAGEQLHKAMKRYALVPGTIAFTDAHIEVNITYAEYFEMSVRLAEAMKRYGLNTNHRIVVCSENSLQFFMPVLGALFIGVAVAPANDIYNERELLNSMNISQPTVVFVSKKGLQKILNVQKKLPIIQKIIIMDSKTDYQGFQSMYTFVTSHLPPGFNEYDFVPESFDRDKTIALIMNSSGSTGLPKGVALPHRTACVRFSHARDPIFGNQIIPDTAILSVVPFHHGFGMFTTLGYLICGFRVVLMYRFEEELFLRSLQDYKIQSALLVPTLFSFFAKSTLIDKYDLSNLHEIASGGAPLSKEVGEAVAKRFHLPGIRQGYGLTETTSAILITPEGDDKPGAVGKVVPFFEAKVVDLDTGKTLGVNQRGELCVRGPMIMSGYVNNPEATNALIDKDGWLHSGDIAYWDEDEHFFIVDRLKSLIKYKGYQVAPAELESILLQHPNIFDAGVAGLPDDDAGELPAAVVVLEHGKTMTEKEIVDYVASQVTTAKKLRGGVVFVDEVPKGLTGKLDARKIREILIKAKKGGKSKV
T1 sequence (P08659 2-550 L550V, form open): as above
Sequence of P. pyralis FLuc (P08659 whole entry): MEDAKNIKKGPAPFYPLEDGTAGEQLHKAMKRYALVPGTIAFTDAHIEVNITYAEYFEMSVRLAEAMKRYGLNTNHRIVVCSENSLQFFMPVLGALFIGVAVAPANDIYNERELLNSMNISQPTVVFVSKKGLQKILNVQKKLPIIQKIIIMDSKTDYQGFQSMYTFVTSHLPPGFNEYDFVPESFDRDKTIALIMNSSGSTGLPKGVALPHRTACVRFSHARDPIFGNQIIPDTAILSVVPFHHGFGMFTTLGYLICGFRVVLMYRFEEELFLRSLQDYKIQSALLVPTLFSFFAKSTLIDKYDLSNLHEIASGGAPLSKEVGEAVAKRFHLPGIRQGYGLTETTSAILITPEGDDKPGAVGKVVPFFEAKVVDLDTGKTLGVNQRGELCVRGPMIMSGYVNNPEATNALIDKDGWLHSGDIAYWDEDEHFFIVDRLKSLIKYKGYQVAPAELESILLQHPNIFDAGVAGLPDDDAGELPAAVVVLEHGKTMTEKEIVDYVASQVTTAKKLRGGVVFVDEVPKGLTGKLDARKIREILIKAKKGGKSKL
T2 sequence (P08659 whole entry, looked up): as the sequence (P08659 whole entry) above

pIC50, FLuc E [1]: 6.155
IC50 [1]: 0.7 µM
pSDR50, SDR (+ ATP) ([2]; SDR assay with ATP): 5.355
pSDR50, SDR (-ATP) ([2]; SDR assay without ATP): 5.105
Pearson r (SDR+ATP vs. E) [2]: 0.917
Pearson r (SDR-ATP vs. E) [2]: 0.903
EC50 [2, 4]: 4.42 µM
EC50 [2, 5]: 7.85 µM
SMILES: CSc1ccc(/C=C/c2nc3ccccc3n2[S+](=O)([O-])c2ccc(Br)cc2)cc1 [NCGC00108248-01]

pIC50, FLuc E [1]: 6.255
IC50 [1]: 0.556 µM
pSDR50, SDR (+ ATP) ([2]; SDR assay with ATP): 5.705
pSDR50, SDR (-ATP) ([2]; SDR assay without ATP): 5.705
Pearson r (SDR+ATP vs. E) [2]: 0.941
Pearson r (SDR-ATP vs. E) [2]: 0.919
EC50 [2, 4]: 1.97 µM
EC50 [2, 5]: 1.97 µM
SMILES: CSc1ccc(/C=C/c2nc3ccccc3n2[S+](=O)([O-])c2cccc(Cl)c2)cc1 [NCGC00108250-01]

SMILES: CC(C)NC(=O)C1CCN(C(=O)c2ncn3c2COC(c2ccccc2)C3)CC1 (stereo not drawn) [NCGC00449767-01]
Efficacy (%) FLuc E (P. pyralis FLuc): -88.78%
IC50 (P. pyralis FLuc): 0.00248 mM
AC50 (P. pyralis FLuc): 2.48 µM
CC-v2 (P. pyralis FLuc): -1.1
Efficacy (P. pyralis FLuc): -88.78
Hill Coef (P. pyralis FLuc): 1.10
Inf Activity (P. pyralis FLuc): -90.78
Max Resp (P. pyralis FLuc): -86.46
Zero Activity (P. pyralis FLuc): -2.01
Efficacy (%) FLuc-C-NLuc SDR (-ATP) [3]: 0.00%
% Activity (max response, + ATP) [2]: 350.87%
% Activity (max response, - ATP) [2]: 0.00%
IC50 (FLuc-C-HiBiT): 0.00351 mM

SMILES: CCC(CC)NC(=O)C1CCN(C(=O)c2ncn3c2COC(c2ccc(F)cc2)C3)CC1 (stereo not drawn) [NCGC00430454-01]
Efficacy (%) FLuc E (P. pyralis FLuc): -16.84%
CC-v2 (P. pyralis FLuc): 4
Efficacy (P. pyralis FLuc): -16.84
Hill Coef (P. pyralis FLuc): 1.51
Inf Activity (P. pyralis FLuc): -9.34
Max Resp (P. pyralis FLuc): -6.95
Zero Activity (P. pyralis FLuc): 7.50
Efficacy (%) FLuc-C-NLuc SDR (-ATP) [3]: 0.00%
% Activity (max response, + ATP) [2]: 9.00%
% Activity (max response, - ATP) [2]: 0.00%

SMILES: Cc1ccc(C2Cn3cnc(C(=O)N4CCC(C(=O)NCCC(C)C)CC4)c3CO2)cc1 (stereo not drawn) [NCGC00422121-01]
Efficacy (%) FLuc E (P. pyralis FLuc): -26.32%
IC50 (P. pyralis FLuc): 0.0139 mM
AC50 (P. pyralis FLuc): 13.9 µM
CC-v2 (P. pyralis FLuc): -2.4
Efficacy (P. pyralis FLuc): -26.32
Hill Coef (P. pyralis FLuc): 1.21
Inf Activity (P. pyralis FLuc): -27.95
Max Resp (P. pyralis FLuc): -21.63
Zero Activity (P. pyralis FLuc): -1.63
Efficacy (%) FLuc-C-NLuc SDR (-ATP) [3]: 0.00%
% Activity (max response, + ATP) [2]: 49.59%
% Activity (max response, - ATP) [2]: 0.00%

pIC50, FLuc E [1]: 6.405
IC50 [1]: 0.394 µM
pSDR50, SDR (+ ATP) ([2]; SDR assay with ATP): 5.605
pSDR50, SDR (-ATP) ([2]; SDR assay without ATP): 5.505
Pearson r (SDR+ATP vs. E) [2]: 0.892
Pearson r (SDR-ATP vs. E) [2]: 0.888
EC50 [2, 4]: 2.48 µM
EC50 [2, 5]: 3.13 µM
SMILES: CCOc1ccc(/C=C/c2nc3ccccc3n2[S+](=O)([O-])c2cccc(Cl)c2)cc1 [NCGC00108246-01]

SMILES: CC(C)CCNC(=O)C1CCN(C(=O)c2ncn3c2COC(c2ccc(F)cc2)C3)CC1 (stereo not drawn) [NCGC00423180-01]
Efficacy (%) FLuc E (P. pyralis FLuc): -22.97%
CC-v2 (P. pyralis FLuc): 4
Efficacy (P. pyralis FLuc): -22.97
Hill Coef (P. pyralis FLuc): 2.25
Inf Activity (P. pyralis FLuc): -22.47
Max Resp (P. pyralis FLuc): -18.73
Zero Activity (P. pyralis FLuc): 0.50
Efficacy (%) FLuc-C-NLuc SDR (-ATP) [3]: 0.00%
% Activity (max response, + ATP) [2]: 35.19%
% Activity (max response, - ATP) [2]: 0.00%

IC50 (FLuc-C-HiBiT): 0.0114 mM
SMILES: O=C1c2cnc(-c3cccc(CO)c3)nc2OCCN1c1ccccc1 [NCGC00413559-01]

IC50 (FLuc-C-HiBiT): 0.0111 mM
SMILES: COC(=O)c1c(-c2cccs2)csc1NC(=O)c1ccc(Br)cc1 [NCGC00118335-01]

IC50 (FLuc-C-HiBiT): 0.00124 mM
SMILES: COc1ccc(-c2noc(-c3ccc(C)cc3Cl)n2)cc1OC [NCGC00102273-01]

IC50 (FLuc-C-HiBiT): 0.00785 mM
SMILES: CCCNc1cc(N2CCC(CCC(=O)O)CC2)ncn1 [NCGC00432805-01]

IC50 (FLuc-C-HiBiT): 0.0101 mM
SMILES: COCCN1CCC2(C1)CN(C)c1ccc(C(=O)Nc3ccn(C)n3)cc12 (stereo not drawn) [NCGC00419376-01]

IC50 (FLuc-C-HiBiT): > 0.03 mM
SMILES: Cc1cnc(CC2CCCN(C(=O)CCc3c[nH]c4ccccc34)C2)n1C(C)C (stereo not drawn) [NCGC00469687-01]

IC50 (FLuc-C-HiBiT): > 0.03 mM
SMILES: CCSc1ccc(C(=O)Nc2ccc(-c3nc4ccc(C)cc4s3)cc2)cc1 [NCGC00134697-01]

IC50 (FLuc-C-HiBiT): > 0.03 mM
SMILES: COc1ccc(CN(C(=O)c2cc3ccccc3oc2=O)C2CC[S+](=O)([O-])C2)cc1OC (stereo not drawn) [NCGC00100996-01]

IC50 (FLuc-C-HiBiT): 0.00881 mM
SMILES: O=C(c1cc(-c2ccc(F)cc2)nc2ccccc12)N1CCC(Cc2nncn2CC2CC2)CC1 [NCGC00456245-01]

IC50 (FLuc-C-HiBiT): 0.00279 mM
SMILES: O=C(Nc1cccc(-c2ccc(N3CCOCC3)nn2)c1)Nc1ccccc1F [NCGC00427598-01]

IC50 (FLuc-C-HiBiT): > 0.03 mM
SMILES: CCCCCSc1nnc(-c2ccc(Br)cc2)o1 [NCGC00098355-01]

IC50 (FLuc-C-HiBiT): 0.0124 mM
SMILES: Cc1c(-c2ccccc2F)[nH]c2ccc(CNC(=O)C3C=CCN3)cc12 (stereo not drawn) [NCGC00438963-01]

IC50 (FLuc-C-HiBiT): 0.0161 mM
SMILES: C[S+](=O)([O-])CCn1ncc2cc(OCc3cccc(-c4cccc(O)c4)c3)ccc21 [NCGC00418035-01]

IC50 (FLuc-C-HiBiT): 0.00785 mM
SMILES: Cc1ccc(-c2nc(C(=O)N3CCN(c4ccccn4)CC3)no2)cc1 [NCGC00447133-01]

IC50 (FLuc-C-HiBiT): 0.018 mM
SMILES: Cc1cc(-c2cccc(COc3ccc4c(cnn4CC[S+](C)(=O)[O-])c3)c2)ccn1 [NCGC00418048-01]
